Consider four compounds from patent US20180282331A1, “7-Oxo -6-(sulfooxy)- 1,6-diazabicyclo [3.2.1] octane containing compounds and their use in treatment of bacterial infections (changed by PCT to: 7-OXO -6-(SULFOOXY)- 1,6-DIAZABICYCLO [3.2.1] OCTANE CONTAINING COMPOUNDS AND THEIR USE IN TREATMENT OF BACTERIAL INFECTIONS” (WOCKHARDT LIMITED, priority 2015, published 2018).

Common to all, as to type: cell-based
For assay [1], the system named is K. pneumoniae H525. As to the kind of experiment: MIC of Ceftazidime in combination with compound (4 mcg/ml), agar dilution. To be noted: Klebsiella pneumoniae, Ceftazidime alone or with constant 4 mcg/ml of compound. Here is the method: (§1) The biological activity of representative compounds according to the invention against various bacterial strains was investigated. The Minimum Inhibitory Concentration (MIC) determination for the combinations was carried out in Muller Hinton Agar (MHA) (BD, USA) according to Clinical and Laboratory Standards Institute (CLSI) recommendations, (Clinical and Laboratory Standards Institute (CLSI), Performance Standards for Antimicrobial Susceptibility Testing, 20th Informational Supplement, M 100-S20, Volume 30, No. 1, 2010). In short, the test strains were adjusted to deliver about 10^4 CFU per spot with a multipoint inoculator (Applied Quality Services, UK). The plates were poured with MHA containing doubling concentration range of representative compounds according to present invention. The plates were inoculated and were incubated at 35° C. for 18 hours. […] The Table 5 depicts the antibacterial activity profile of compounds according to present invention against various multidrug resistant bacterial strains.
(§2) The combinations of compounds according to present invention were also tested for their antibacterial activity in combination with Ceftazidime. The plates were poured with MHA containing doubling concentration range of Ceftazidime in combination with constant concentration (4 mcg/ml) of representative compounds of Formula (I).
On the technique in general: In agar dilution the substance is mixed into plates at graded concentrations.

Assay [2] deals with E. coli NCTC 13352. The assay is described as above. To be noted: Escherichia coli, NCTC13352, Ceftazidime alone or with constant 4 mcg/ml of compound. As to the method:
as §1, §2

Assay [3] deals with E. coli NCTC 13353. The description is as above. To be noted: Escherichia coli, NCTC13353, Ceftazidime alone or with constant 4 mcg/ml of compound. As to the method:
as §1, §2

Assay [4] deals with K. pneumoniae H521. The assay is described as above. To be noted: Klebsiella pneumoniae, Ceftazidime alone or with constant 4 mcg/ml of compound. As to the method: as §1, §2
In assay [5] the test system is E. coli 7 MP. Described as above. To be noted: Escherichia coli, Ceftazidime alone or with constant 4 mcg/ml of compound. As to the method: as §1, §2
Assay [6] has as its system E. coli M 50. The description is as above. To be noted: Escherichia coli, M50, Ceftazidime alone or with constant 4 mcg/ml of compound. Here is the method: as §1, §2
Assay [7] deals with K. pneumoniae ATCC 700603. The description is as above. To be noted: Klebsiella pneumoniae, ATCC700603, Ceftazidime alone or with constant 4 mcg/ml of compound. Here is the method: as §1, §2
In assay [8] the test system is K. pneumoniae H525. As to the kind of experiment: MIC, agar dilution (MHA), compound alone. To be noted: Klebsiella pneumoniae; K. pneumoniae H525; compound alone; MHA, 35° C., 18 hours; read-out: MIC. Here is the method:
as §1

Assay [9] concerns E. coli NCTC 13352. Put plainly: MIC, agar dilution (MHA), compound alone. To be noted: Escherichia coli, NCTC13352; E. coli NCTC 13352; compound alone; MHA, 35° C., 18 hours; read-out: MIC. As to the method: as §1
Assay [10] relates to E. coli NCTC 13353. As to the kind of experiment: MIC, agar dilution (MHA), compound alone. To be noted: Escherichia coli, NCTC13353; E. coli NCTC 13353; compound alone; MHA, 35° C., 18 hours; read-out: MIC. As to the method: as §1
Assay [11] relates to K. pneumoniae H521. Put plainly: MIC, agar dilution (MHA), compound alone. To be noted: Klebsiella pneumoniae; K. pneumoniae H521; compound alone; MHA, 35° C., 18 hours; read-out: MIC. Here is the method: as §1
Assay [12] concerns E. coli 7 MP. As to the kind of experiment: MIC, agar dilution (MHA), compound alone. To be noted: Escherichia coli; E. coli 7 MP; compound alone; MHA, 35° C., 18 hours; read-out: MIC. Here is the method: as §1
Assay [13] relates to E. coli M 50. Put plainly: MIC, agar dilution (MHA), compound alone. To be noted: Escherichia coli, M50; E. coli M 50; compound alone; MHA, 35° C., 18 hours; read-out: MIC. As to the method: as §1
Assay [14] concerns K. pneumoniae ATCC 700603. As to the kind of experiment: MIC, agar dilution (MHA), compound alone. To be noted: Klebsiella pneumoniae, ATCC700603; K. pneumoniae ATCC 700603; compound alone; MHA, 35° C., 18 hours; read-out: MIC. Here is the method: as §1

Each structure is given as a SMILES string.

`CC(C)(O/N=C(\C(=O)N[C@@H]1C(=O)N2C(C(=O)[O-])=C(C[n+]3ccccc3)CS[C@H]12)c1csc(N)n1)C(=O)O` [Ceftazidime]: the minimal inhibitory concentration (MIC) (usually the least concentration at which growth counts as inhibited) in [1] is greater than 32 µg/mL; in [2], 16 µg/mL; in [3], greater than 32 µg/mL; in assay [4] it was greater than 32 µg/mL; in assay [5], greater than 32 µg/mL; in [6], greater than 32 µg/mL. Besides, in assay [7], the minimal inhibitory concentration (MIC) stood at 16 µg/mL.

Consider `O=C(NOCCn1nnnc1CCO)[C@@H]1CC[C@@H]2CN1C(=O)N2OS(=O)(=O)[O-].[Na+]` [Example 56], for which the MIC was 16 µg/mL in [8]; 8 µg/mL in [9]; 4 µg/mL in [10]; 8 µg/mL in assay [11]; greater than 32 µg/mL in [12]; 4 µg/mL in assay [13]. The minimum inhibitory concentration (MIC) in assay [14] is greater than 32 µg/mL.

With `CCOC(=O)c1nnnn1CCONC(=O)[C@@H]1CC[C@@H]2CN1C(=O)N2OS(=O)(=O)[O-].[Na+]` [Example 49], the MIC in assay [8], in assay [9], in assay [10], in assay [11], in assay [12] and in assay [13] was greater than 32 µg/mL throughout. The MIC in assay [14] was greater than 32 µg/mL.

For `CO/N=C(\C(=O)N[C@@H]1C(=O)N2C(C(=O)[O-])=C(C[N+]3(C)CCCC3)CS[C@H]12)c1csc(N)n1` [Cefepime, reference compound], the minimal inhibitory concentration (MIC) in [8] is 32 µg/mL; in assay [9], 4 µg/mL; in assay [10], 32 µg/mL; in [11] it was 32 µg/mL; in [12], 16 µg/mL; in [13], greater than 32 µg/mL. Moreover, the minimum inhibitory concentration (MIC) in assay [14] was 0.5 µg/mL.
